The text below walks through data of PMC3956125 (Molecular cancer therapeutics, 2013).

In general, IC50 refers to the concentration at which inhibition is half-maximal.

Some results are limits rather than exact numbers.

Series [1] has as its system pancreatic and ovarian cancer cells. The conditions noted are these: cited from earlier work.
A further series deals with CYP2C19 (Homo sapiens, UniProt P33261). The experiment in a line: multiple CYP assay in human liver microsomes. To be noted: 10 μM.
Series [2] deals with 786-O cells. As to the kind of experiment: intracellular glucose measurement. The conditions noted are these: 24 hours. Type of series: cell-based, human.
A further series concerns 786-O tumor model. The experiment in a line: subcutaneous xenograft anti-tumor activity. The conditions noted are these: 4 weeks. Type of series: in vivo, mouse.
In series [3] the test system is A498 cells. The experiment in a line: intracellular glucose measurement. The series is classed as cell-based, human. To be noted: 24 hours.
The next series addresses hERG (Homo sapiens, UniProt Q12809). The experiment in a line: hERG inhibition. The series is classed as cell-based. The conditions noted are these: read-out: IC50 for hERG inhibition; patch-clamp.
Another series relates to SKOV3 ovarian cancer. The conditions noted are these: SKOV3 xenograft; cited from earlier work.
For series [4], the system named is 786-O cells. The experiment in a line: Annexin-FITC/PI apoptosis assay. Type of series: cell-based, human. The conditions noted are these: 48 hours.
Another series is described as follows: metabolic stability. To be noted: human liver microsomes, after 60 min of incubation. In general terms: Liver microsomes are vesicles of endoplasmic reticulum, rich in cytochrome P450 enzymes.
A further series deals with CYP3A4 (Homo sapiens, UniProt P08684). The experiment in a line: multiple CYP assay in human liver microsomes. To be noted: 10 μM.
In series [5] the test system is A498 cells. The experiment in a line: Western blot / immunofluorescence of marker proteins. Type of series: cell-based, human. For orientation: A western blot detects proteins with antibodies after separation by electrophoresis.
The next series has as its target CYP2D6 (Homo sapiens, UniProt P10635). As to the kind of experiment: multiple CYP assay in human liver microsomes. To be noted: 10 μM.
A short description of series [6]: pharmacokinetic analysis of plasma levels. To be noted: Sprague-Dawley rats.
Series [7] concerns A498 cells. The experiment in a line: 3H-thymidine incorporation proliferation assay. The series is classed as cell-based, human.
The test system of series [8] is A498 cells. As to the kind of experiment: cell cycle analysis by flow cytometry. Type of series: cell-based, human. To be noted: increasing concentrations, 24 hours. (In general: Flow cytometry measures light scatter and fluorescence of single cells or particles in a stream.)
In series [9] the test system is 786-O cells. The experiment in a line: cell cycle analysis by flow cytometry. Type of series: cell-based, human. The conditions noted are these: increasing concentrations, 24 hours.
In series [10] the test system is 786-O cells. The experiment in a line: 3H-thymidine incorporation proliferation assay. The series is classed as cell-based, human.
Another series has as its target T1, CYP1A2 (Homo sapiens, UniProt P05177).
T1 sequence (P05177 1-516): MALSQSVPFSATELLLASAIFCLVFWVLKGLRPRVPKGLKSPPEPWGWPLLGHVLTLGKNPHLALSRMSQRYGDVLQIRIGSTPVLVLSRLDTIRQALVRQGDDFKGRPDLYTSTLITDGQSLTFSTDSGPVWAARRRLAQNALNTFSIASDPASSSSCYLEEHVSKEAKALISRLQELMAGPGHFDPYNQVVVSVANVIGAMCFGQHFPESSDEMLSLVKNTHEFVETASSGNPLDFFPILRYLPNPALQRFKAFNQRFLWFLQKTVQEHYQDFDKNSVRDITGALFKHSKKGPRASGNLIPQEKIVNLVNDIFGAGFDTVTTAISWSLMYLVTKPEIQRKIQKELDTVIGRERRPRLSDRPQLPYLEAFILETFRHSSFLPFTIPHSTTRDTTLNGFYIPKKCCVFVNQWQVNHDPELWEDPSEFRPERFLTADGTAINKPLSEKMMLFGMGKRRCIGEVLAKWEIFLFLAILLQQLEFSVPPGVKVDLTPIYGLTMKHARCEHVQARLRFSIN
As to the kind of experiment: multiple CYP assay in human liver microsomes. To be noted: 10 μM.

The target in another series is T2, CYP2B6 (Homo sapiens, UniProt P20813).
T2 sequence (P20813 1-491): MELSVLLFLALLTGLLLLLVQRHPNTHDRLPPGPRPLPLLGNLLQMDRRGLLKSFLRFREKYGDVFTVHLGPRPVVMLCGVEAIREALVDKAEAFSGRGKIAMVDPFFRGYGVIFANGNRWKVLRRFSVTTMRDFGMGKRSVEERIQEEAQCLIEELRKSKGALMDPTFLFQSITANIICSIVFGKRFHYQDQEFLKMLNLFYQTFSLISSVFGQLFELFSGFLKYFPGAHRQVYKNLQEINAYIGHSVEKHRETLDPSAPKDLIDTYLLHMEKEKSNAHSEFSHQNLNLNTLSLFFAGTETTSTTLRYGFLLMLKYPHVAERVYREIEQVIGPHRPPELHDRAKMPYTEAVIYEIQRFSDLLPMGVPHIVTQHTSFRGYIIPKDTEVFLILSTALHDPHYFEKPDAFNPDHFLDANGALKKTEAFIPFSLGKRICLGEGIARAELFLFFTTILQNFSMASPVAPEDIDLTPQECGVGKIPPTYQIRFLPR
The experiment in a line: multiple CYP assay in human liver microsomes. To be noted: 10 μM.

In another series the test system is panel of 320 kinases. The experiment in a line: kinase selectivity profile, single dose. Type of series: biochemical.
For the next series, the system named is A498 tumor model. As to the kind of experiment: subcutaneous xenograft anti-tumor activity. The conditions noted are these: 4 weeks. Type of series: in vivo, mouse.
For series [11], the system named is 786-O cells. The experiment in a line: Western blot / immunofluorescence of marker proteins. The series is classed as cell-based, human.
Series [12] deals with A498 cells. The experiment in a line: Annexin-FITC/PI apoptosis assay. The series is classed as cell-based, human. The conditions noted are these: 48 hours.
The target in another series is CYP2C9 (Homo sapiens, UniProt P11712). The experiment in a line: multiple CYP assay in human liver microsomes. The conditions noted are these: 10 μM.
Setting [13] is: 20 mg/kg i.p. three times a week, p<0.05.
Setting [14] is: tumor tissue sections, 20 mg/kg i.p.

CYP3A4, sequence (P08684 whole entry): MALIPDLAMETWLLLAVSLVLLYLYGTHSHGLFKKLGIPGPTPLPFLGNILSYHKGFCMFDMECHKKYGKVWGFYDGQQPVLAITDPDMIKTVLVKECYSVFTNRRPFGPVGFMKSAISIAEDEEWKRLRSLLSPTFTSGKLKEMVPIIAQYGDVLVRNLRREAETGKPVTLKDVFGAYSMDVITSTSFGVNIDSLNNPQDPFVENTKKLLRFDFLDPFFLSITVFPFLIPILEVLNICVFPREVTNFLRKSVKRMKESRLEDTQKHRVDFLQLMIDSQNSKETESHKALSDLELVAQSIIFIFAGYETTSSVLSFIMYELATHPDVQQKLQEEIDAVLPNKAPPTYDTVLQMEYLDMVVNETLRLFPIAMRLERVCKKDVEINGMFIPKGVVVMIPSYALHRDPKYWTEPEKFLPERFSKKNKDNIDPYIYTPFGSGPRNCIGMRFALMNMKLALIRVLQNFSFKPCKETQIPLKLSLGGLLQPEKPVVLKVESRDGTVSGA
CYP2C9, sequence (P11712 whole entry): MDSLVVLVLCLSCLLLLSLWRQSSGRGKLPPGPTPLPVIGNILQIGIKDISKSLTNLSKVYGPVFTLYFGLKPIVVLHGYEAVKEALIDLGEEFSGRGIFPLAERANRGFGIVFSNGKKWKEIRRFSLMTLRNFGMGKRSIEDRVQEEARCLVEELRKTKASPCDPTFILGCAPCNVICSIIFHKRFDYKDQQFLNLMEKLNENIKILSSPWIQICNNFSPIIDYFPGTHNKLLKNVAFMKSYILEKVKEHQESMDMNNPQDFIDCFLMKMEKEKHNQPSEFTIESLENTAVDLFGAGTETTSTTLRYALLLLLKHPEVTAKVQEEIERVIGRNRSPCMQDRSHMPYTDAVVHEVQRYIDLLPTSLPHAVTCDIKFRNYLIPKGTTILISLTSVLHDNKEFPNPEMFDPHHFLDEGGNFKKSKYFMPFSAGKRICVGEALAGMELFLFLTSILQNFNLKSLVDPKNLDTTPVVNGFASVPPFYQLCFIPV
CYP2C19, sequence (P33261 whole entry): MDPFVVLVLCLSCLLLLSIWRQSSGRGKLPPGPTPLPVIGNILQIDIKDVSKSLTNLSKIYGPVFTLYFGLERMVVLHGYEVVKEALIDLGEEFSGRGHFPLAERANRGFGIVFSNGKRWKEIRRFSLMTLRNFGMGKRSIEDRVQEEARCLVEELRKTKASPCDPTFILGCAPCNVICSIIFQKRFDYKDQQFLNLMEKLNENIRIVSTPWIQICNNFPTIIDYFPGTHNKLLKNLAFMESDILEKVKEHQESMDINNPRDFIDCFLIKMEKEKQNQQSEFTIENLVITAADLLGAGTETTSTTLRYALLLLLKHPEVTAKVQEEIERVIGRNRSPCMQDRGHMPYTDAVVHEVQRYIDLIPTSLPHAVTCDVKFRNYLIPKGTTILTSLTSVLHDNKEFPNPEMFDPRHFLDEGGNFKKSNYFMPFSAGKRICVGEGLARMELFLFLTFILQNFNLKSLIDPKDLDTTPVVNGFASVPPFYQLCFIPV
CYP2D6, sequence (P10635 whole entry): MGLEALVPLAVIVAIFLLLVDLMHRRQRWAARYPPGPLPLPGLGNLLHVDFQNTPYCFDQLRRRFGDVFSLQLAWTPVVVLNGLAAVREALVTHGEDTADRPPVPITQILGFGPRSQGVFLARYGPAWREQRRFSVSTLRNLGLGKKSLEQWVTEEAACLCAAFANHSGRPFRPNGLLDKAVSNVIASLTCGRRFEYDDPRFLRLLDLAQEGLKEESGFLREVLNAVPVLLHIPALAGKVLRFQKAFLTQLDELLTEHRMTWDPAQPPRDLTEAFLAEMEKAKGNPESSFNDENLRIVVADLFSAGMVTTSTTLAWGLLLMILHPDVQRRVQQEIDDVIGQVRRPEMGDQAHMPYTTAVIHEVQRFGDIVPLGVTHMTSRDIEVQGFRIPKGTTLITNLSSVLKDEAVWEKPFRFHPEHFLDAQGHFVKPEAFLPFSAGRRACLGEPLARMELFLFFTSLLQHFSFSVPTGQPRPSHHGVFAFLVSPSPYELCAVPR
hERG, sequence (Q12809 whole entry): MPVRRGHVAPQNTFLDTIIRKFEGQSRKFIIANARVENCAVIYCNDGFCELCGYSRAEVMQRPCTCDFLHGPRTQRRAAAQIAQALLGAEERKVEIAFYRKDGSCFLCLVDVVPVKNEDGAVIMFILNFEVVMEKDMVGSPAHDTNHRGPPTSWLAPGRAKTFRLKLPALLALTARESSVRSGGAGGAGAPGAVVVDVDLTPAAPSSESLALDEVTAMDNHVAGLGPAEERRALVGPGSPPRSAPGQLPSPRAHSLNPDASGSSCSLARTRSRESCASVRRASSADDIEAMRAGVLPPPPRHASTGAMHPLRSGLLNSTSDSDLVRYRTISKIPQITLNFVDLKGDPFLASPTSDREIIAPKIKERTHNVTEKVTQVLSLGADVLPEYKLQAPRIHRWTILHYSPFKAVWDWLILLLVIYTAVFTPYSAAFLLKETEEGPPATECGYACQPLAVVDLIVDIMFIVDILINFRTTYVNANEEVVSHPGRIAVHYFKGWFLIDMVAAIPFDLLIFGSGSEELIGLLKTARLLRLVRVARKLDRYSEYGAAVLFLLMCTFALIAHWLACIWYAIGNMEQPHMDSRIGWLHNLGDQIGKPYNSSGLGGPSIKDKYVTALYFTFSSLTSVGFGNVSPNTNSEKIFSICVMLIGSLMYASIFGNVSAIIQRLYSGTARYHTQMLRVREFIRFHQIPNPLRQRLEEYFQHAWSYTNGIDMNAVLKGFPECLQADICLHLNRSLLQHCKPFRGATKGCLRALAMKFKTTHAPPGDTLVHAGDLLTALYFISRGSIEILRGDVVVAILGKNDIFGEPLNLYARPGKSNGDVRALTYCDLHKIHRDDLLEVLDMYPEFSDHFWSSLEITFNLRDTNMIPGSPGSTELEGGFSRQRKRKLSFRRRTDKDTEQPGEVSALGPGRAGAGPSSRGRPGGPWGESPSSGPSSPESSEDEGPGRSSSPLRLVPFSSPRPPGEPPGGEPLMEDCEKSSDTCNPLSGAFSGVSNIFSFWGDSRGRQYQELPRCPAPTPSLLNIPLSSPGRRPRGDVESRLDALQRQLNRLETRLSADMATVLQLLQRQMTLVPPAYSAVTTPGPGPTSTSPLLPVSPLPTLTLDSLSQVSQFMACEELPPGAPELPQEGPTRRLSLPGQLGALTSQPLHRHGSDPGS

For the compound `Cn1cc(C2=C(c3coc4ccc(F)cc34)C(=O)NC2=O)c2cc3c(cc21)OCO3` [9-ING-41], the antiproliferative activity entry in series [1] was “potent antiproliferative agent”. Also, the CYP activity at CYP2C19 is ≥ 50 % of the control; at CYP3A4 it was 32 % of the control; at CYP2D6, ≥ 50 % of the control; at CYP1A2, ≥ 50 % of the control; at CYP2B6 it was ≥ 50 % of the control; on CYP2C9, ≥ 50 % of the control. For the same compound, the intracellular glucose result in the series with 786-O cells [2] and in the series on A498 cells [3] was “dose-dependent increase” each time. Moreover, the “tumor growth vs control group” value in the series on 786-O tumor model (setting [13]) and in the series on A498 tumor model (setting [13]) was “significant reduction of tumor growth” in each case. For the same compound, the “abundance of Ki67-positive nuclei vs control group” value in the series on 786-O tumor model (setting [14]) and in the series with A498 tumor model (setting [14]) was “significantly lower” throughout. Also, the IC50 on hERG is 21 µM; with A498 cells [7] (read-out: cell growth inhibition IC50, A498), below 1 µM; with 786-O cells [10] (read-out: cell growth inhibition IC50), below 1 µM. The “tumor progression in vivo” value with SKOV3 ovarian cancer is reported as “attenuate tumor progression”. Further, the “percentage of early apoptotic cells” value in the series on 786-O cells [4] (1000 nM, 786-O (DMSO 5.54%)) was 11.6%. For the same compound, the induction of apoptosis result with 786-O cells [4] (786-O) and with A498 cells [12] was “No significant induction of apoptosis” each time. In the series “metabolic stability”, the parent compound remained was 78.9%. The “phosphorylation of AMPK-α and AMPK-β” value in the series with A498 cells [5] (24-48 hours, A498, Western blot) was “increase in phosphorylation”; with 786-O cells [11] (24-48 hours, Western blot), “increase in phosphorylation”. In addition, the “cyclin D1 protein expression” value with A498 cells [5] (24 hours, A498, Western blot) is listed as “down-regulated”; in the series with 786-O cells [11] (24 hours, Western blot) it was “down-regulated”. The Id-1 expression result was “decreased” in the series with A498 cells [5] (48 hours, A498, Western blot) and “decreased” in the series on 786-O cells [11] (48 hours, Western blot). Besides, the Ksp-cadherin expression entry in the series with A498 cells [5] (48 hours, A498, Western blot) was “dose-dependent increase”; in the series on 786-O cells [11] (48 hours, Western blot), “dose-dependent increase”. The “LC3B levels (autophagy)” value in the series on A498 cells [5] (A498, Western blot and immunofluorescence) is “increased levels”; in the series with 786-O cells [11] (Western blot and immunofluorescence) it was “increased levels”. This compound returned an elimination half-life in series [6] of 4.85 h. In addition, the volumes of distribution in series [6] is on record as at least 10 L/kg. Further, the inhibition in proliferation with A498 cells [7] (500 nM, 72 hours, A498) is given as ~ 40%; in the series with 786-O cells [10] (500 nM, 72 hours), ~ 40%. The inhibition of proliferation result was “almost complete inhibition” in the series with A498 cells [7] (1000 nM, 72 hours, A498) and “almost complete inhibition” in the series with 786-O cells [10] (1000 nM, 72 hours). In addition, the “fraction of cells in the S phase” value in the series on A498 cells [8] and in the series on 786-O cells [9] was “decreased significantly” in each case. The “number of kinases with less than 50% remaining activity” value in the series on panel of 320 kinases (10 μM single dose, duplicates, panel of 320 kinases) came out at 35. Further, in the series with panel of 320 kinases (SI Table S1, 10 μM), the “discrimination between GSK-3α and GSK-3β” value was “inhibits them equally”.

For “GSK-3β siRNA: Qiagen siRNA against GSK-3β, target sequence 5'-CCCAAATGTCAAACTACCAAA-3' (sense CAAAUGUCAAACUACCAAATT; antisense UUUGGUAGUUUGACAUUUGGG; chemistry not given here) [reference compound]”, the inhibition of proliferation result with A498 cells [7] (siRNA 100 nM, 72 hours, A498, p<0.01) was “slight yet significant inhibition”; with 786-O cells [10] (siRNA 100 nM, 72 hours, p<0.01) it was “slight yet significant inhibition”.
